Laboratory results published in paper PMC2826549 (Thrombosis research, 2009).

Columns and labels:
Assay type in all cases: cell-based
P2Y1 = P2Y1 (Homo sapiens, UniProt P47900); assay: inhibition of […] ADP-induced cytosolic Ca2+ increase in human platelets
P2Y12 = P2Y12 (Homo sapiens, UniProt Q9H244); assay: VASP phosphorylation flow cytometry in human whole blood platelets
P2X1 = biological target: T1, P2X1 (Homo sapiens, UniProt P51575); assay: FLUO-4 flow cytometry of extracellular Ca2+ entry in human platelets; settings: read-out: Ap4A Agonist Activity
T1 sequence (P51575 1-399): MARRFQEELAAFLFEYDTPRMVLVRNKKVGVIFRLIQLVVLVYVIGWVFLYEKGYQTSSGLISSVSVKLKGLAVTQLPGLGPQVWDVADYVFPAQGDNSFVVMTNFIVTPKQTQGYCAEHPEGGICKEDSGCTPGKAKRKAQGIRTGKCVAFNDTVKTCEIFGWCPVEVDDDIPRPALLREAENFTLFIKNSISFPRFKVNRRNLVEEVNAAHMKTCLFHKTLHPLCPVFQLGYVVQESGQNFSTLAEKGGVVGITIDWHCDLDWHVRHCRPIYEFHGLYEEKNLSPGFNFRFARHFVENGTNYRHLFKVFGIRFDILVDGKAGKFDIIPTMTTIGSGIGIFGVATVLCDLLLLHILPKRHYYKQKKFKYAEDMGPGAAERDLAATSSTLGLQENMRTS

Sequence of P2Y1 (P47900 whole entry): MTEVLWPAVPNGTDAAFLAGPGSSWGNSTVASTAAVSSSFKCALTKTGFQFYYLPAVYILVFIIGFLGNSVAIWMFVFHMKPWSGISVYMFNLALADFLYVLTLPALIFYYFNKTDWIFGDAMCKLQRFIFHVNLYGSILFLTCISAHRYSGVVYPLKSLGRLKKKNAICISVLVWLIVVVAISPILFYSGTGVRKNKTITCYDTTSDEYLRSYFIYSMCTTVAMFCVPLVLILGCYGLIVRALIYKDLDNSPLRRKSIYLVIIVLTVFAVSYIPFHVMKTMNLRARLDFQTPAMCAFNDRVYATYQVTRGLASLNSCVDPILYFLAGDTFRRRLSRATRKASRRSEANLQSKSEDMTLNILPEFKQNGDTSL
Sequence of P2Y12 (Q9H244 whole entry): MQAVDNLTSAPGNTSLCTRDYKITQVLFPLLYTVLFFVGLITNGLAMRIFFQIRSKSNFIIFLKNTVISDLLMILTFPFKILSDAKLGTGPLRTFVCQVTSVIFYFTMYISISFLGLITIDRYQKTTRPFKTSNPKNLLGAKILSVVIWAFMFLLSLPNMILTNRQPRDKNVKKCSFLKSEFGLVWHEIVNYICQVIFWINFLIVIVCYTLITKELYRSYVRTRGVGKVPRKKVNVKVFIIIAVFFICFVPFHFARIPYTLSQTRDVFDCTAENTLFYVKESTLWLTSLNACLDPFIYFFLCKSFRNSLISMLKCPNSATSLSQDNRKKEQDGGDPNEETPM

IC50 (P2Y1): 40.8 ± 12.3 µM
IC50 (P2Y12): > 250 µM
EC50 (P2X1): ~0.3 µM
Compound: Nc1ncnc2c1ncn2[C@@H]1O[C@H](COP(=O)(O)OP(=O)(O)OP(=O)(O)OP(=O)(O)OC[C@H]2O[C@@H](n3cnc4c(N)ncnc43)[C@H](O)[C@@H]2O)[C@@H](O)[C@H]1O [Ap4A, Diadenosine 5',5"'-P^1,P^4-tetraphosphate]
